Literature values in patent publication US20080103103A1, “Reagents and methods to treat ocular diseases and infection” (priority 2006, published 2008).

Tests used:
[1] = test system: adenovirus; conditions: 0.5%
[2] = test system: adenovirus; conditions: 0.2%
[3] = test system: HSV; conditions: HSV early onset
[4] = test system: adenovirus
[5] = test system: adenovirus; remark: listed apart in the source
[6] = test system: adenovirus; conditions: 3%, ocular application

## Nc1ccn(C[C@@H](CO)OCP(=O)(O)O)c(=O)n1 [cidofovir]
[1]
  result in animal studies: some positive results
[2]
  result in clinical trials: failed

## Nc1nc2c(ncn2COCCO)c(=O)[nH]1 [Acyclovir]
[3]
  effectiveness against HSV: effective
[4]
  effectiveness against adenovirus: not adenovirus

## CC(=O)OCC(CCn1cnc2cnc(N)nc21)COC(C)=O [famciclovir]
[3]
  effectiveness against HSV: effective
[4]
  effectiveness against adenovirus: not adenovirus

## O=C(O[C@@H]1Cc2c(O)cc(O)cc2O[C@@H]1c1cc(O)c(O)c(O)c1)c1cc(O)c(O)c(O)c1 [EGCG, (2R,3R)-2-(3,4,5-Trihydroxyphenyl)-3,4-dihydro-1(2H)-benzopyran-3,5,7-triol 3-(3,4,5-trihydroxybenzoate)]
[5]; in vitro
  activity against adenovirus in vitro (viral load): greatly reducing the viral load
[5]; in vitro cultures, adenovirus
  concentration effective for in vitro cultures: 0.005%

## Nc1nc(O)c2ncn(COC(CO)CO)c2n1 [gancicolovir]
[6]
  activity against adenovirus: very minor activity
